Measured values published in PubChem BioAssay (NCI).
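The concentration for 50% growth inhibition is given as GI50. At the TGI there is no net growth.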

Assays:
Test in all cases: DTP human tumour cell line panel, 384-well format
786-0 renal = test system: 786-0 renal
A498 renal = test system: A498 renal
A549 NSCLC = test system: A549 NSCLC
ACHN renal = test system: ACHN renal
BT-549 breast = test system: BT-549 breast
CAKI-1 renal = test system: CAKI-1 renal
CCRF-CEM leukemia = test system: CCRF-CEM leukemia
COLO 205 colon = test system: COLO 205 colon
DU-145 prostate = test system: DU-145 prostate
EKVX NSCLC = test system: EKVX NSCLC
HCC-2998 colon = test system: HCC-2998 colon
HCT-15 colon = test system: HCT-15 colon
HL-60(TB) leukemia = test system: HL-60(TB) leukemia
HOP-62 NSCLC = test system: HOP-62 NSCLC
HOP-92 NSCLC = test system: HOP-92 NSCLC
HS 578T breast = test system: HS 578T breast
HT29 colon = test system: HT29 colon
IGROV1 ovarian = test system: IGROV1 ovarian
KM12 colon = test system: KM12 colon
M14 melanoma = test system: M14 melanoma
MALME-3M melanoma = test system: MALME-3M melanoma
MCF7 breast = test system: MCF7 breast
MDA-MB-231 breast = test system: MDA-MB-231 breast
MDA-MB-435 melanoma = test system: MDA-MB-435 melanoma
MDA-MB-468 breast = test system: MDA-MB-468 breast
MOLT-4 leukemia = test system: MOLT-4 leukemia
NCI-H226 lung = test system: NCI-H226 lung
NCI-H23 lung = test system: NCI-H23 lung
NCI-H322M lung = test system: NCI-H322M lung
NCI-H460 NSCLC = test system: NCI-H460 NSCLC
NCI-H522 lung = test system: NCI-H522 lung
NCI/ADR-RES ovarian = test system: NCI/ADR-RES ovarian
OVCAR-3 ovarian = test system: OVCAR-3 ovarian
OVCAR-4 ovarian = test system: OVCAR-4 ovarian
OVCAR-5 ovarian = test system: OVCAR-5 ovarian
OVCAR-8 ovarian = test system: OVCAR-8 ovarian
PC-3 prostate = test system: PC-3 prostate
RPMI-8226 leukemia = test system: RPMI-8226 leukemia
RXF 393 renal = test system: RXF 393 renal
SF-268 CNS = test system: SF-268 CNS
SF-295 CNS = test system: SF-295 CNS
SF-539 CNS = test system: SF-539 CNS
SK-MEL-2 melanoma = test system: SK-MEL-2 melanoma
SK-MEL-28 melanoma = test system: SK-MEL-28 melanoma
SK-MEL-5 melanoma = test system: SK-MEL-5 melanoma
SK-OV-3 ovarian = test system: SK-OV-3 ovarian
SN12C renal = test system: SN12C renal
SNB-19 CNS = test system: SNB-19 CNS
SNB-75 CNS = test system: SNB-75 CNS
SR leukemia = test system: SR leukemia
SW-620 colon = test system: SW-620 colon
T-47D breast = test system: T-47D breast
TK-10 renal = test system: TK-10 renal
U251 glioblastoma = test system: U251 glioblastoma
UACC-257 melanoma = test system: UACC-257 melanoma
UACC-62 melanoma = test system: UACC-62 melanoma

Question: Which GI50 (786-0 renal) does the source give for O=c1cc(N2CCOCC2)oc2c(-c3ccccc3)cccc12 here?
Answer: 7.17 µM

Question: What about the TGI (786-0 renal) of the same compound?
Answer: 93.5 µM

Question: What about the GI50 (A498 renal) of the same compound?
Answer: 1.86 µM

Question: What about the TGI (A498 renal) of the same compound?
Answer: 8.98 µM

Question: What about the GI50 (A549 NSCLC) of the same compound?
Answer: 5.87 µM

Question: What about the TGI (A549 NSCLC) of the same compound?
Answer: 27.9 µM

Question: What about the GI50 (ACHN renal) of the same compound?
Answer: 7.85 µM

Question: What about the TGI (ACHN renal) of the same compound?
Answer: 26.8 µM

Question: And the GI50 (BT-549 breast)?
Answer: 2.61 µM

Question: And the TGI (BT-549 breast)?
Answer: 14.4 µM

Question: What about the GI50 (CAKI-1 renal) of the same compound?
Answer: 1.89 µM

Question: What about the TGI (CAKI-1 renal) of the same compound?
Answer: 9.03 µM

Question: What about the GI50 (CCRF-CEM leukemia) of the same compound?
Answer: 4.08 µM

Question: And the TGI (CCRF-CEM leukemia)?
Answer: 16.1 µM

Question: What about the GI50 (COLO 205 colon) of the same compound?
Answer: 10.1 µM

Question: What about the TGI (COLO 205 colon) of the same compound?
Answer: 22.6 µM

Question: And the GI50 (DU-145 prostate)?
Answer: 8.8 µM

Question: And the TGI (DU-145 prostate)?
Answer: 55.5 µM

Question: And the GI50 (EKVX NSCLC)?
Answer: 4.43 µM

Question: And the TGI (EKVX NSCLC)?
Answer: 26.7 µM

Question: What about the GI50 (HCC-2998 colon) of the same compound?
Answer: 12.3 µM

Question: What about the TGI (HCC-2998 colon) of the same compound?
Answer: 33 µM

Question: What about the GI50 (HCT-15 colon) of the same compound?
Answer: 6.35 µM

Question: What about the TGI (HCT-15 colon) of the same compound?
Answer: 90.2 µM

Question: What about the GI50 (HL-60(TB) leukemia) of the same compound?
Answer: 2.6 µM

Question: And the TGI (HL-60(TB) leukemia)?
Answer: 12.6 µM

Question: And the GI50 (HOP-62 NSCLC)?
Answer: 5.17 µM

Question: And the TGI (HOP-62 NSCLC)?
Answer: 32.8 µM

Question: And the GI50 (HOP-92 NSCLC)?
Answer: 4.79 µM

Question: And the TGI (HOP-92 NSCLC)?
Answer: 43.2 µM

Question: What about the GI50 (HS 578T breast) of the same compound?
Answer: 2.78 µM

Question: And the TGI (HS 578T breast)?
Answer: 9.32 µM

Question: What about the GI50 (HT29 colon) of the same compound?
Answer: 6.69 µM

Question: What about the TGI (HT29 colon) of the same compound?
Answer: 28.7 µM

Question: And the GI50 (IGROV1 ovarian)?
Answer: 2.54 µM

Question: And the TGI (IGROV1 ovarian)?
Answer: 7.63 µM

Question: And the GI50 (KM12 colon)?
Answer: 14 µM

Question: And the TGI (KM12 colon)?
Answer: 81.7 µM

Question: What about the GI50 (M14 melanoma) of the same compound?
Answer: 4.81 µM

Question: What about the TGI (M14 melanoma) of the same compound?
Answer: 29 µM

Question: What about the GI50 (MALME-3M melanoma) of the same compound?
Answer: 2.12 µM

Question: And the TGI (MALME-3M melanoma)?
Answer: 8.78 µM

Question: And the GI50 (MCF7 breast)?
Answer: 3 µM

Question: And the TGI (MCF7 breast)?
Answer: 25.6 µM

Question: What about the GI50 (MDA-MB-231 breast) of the same compound?
Answer: 4.13 µM

Question: What about the TGI (MDA-MB-231 breast) of the same compound?
Answer: 45.8 µM

Question: What about the GI50 (MDA-MB-435 melanoma) of the same compound?
Answer: 10.3 µM

Question: What about the TGI (MDA-MB-435 melanoma) of the same compound?
Answer: 32.1 µM

Question: What about the GI50 (MDA-MB-468 breast) of the same compound?
Answer: 2.24 µM

Question: What about the TGI (MDA-MB-468 breast) of the same compound?
Answer: 7.78 µM

Question: And the GI50 (MOLT-4 leukemia)?
Answer: 3.86 µM

Question: And the TGI (MOLT-4 leukemia)?
Answer: 15.2 µM

Question: What about the GI50 (NCI-H226 lung) of the same compound?
Answer: 3.45 µM

Question: What about the TGI (NCI-H226 lung) of the same compound?
Answer: 10.9 µM

Question: And the GI50 (NCI-H23 lung)?
Answer: 8.85 µM

Question: What about the TGI (NCI-H23 lung) of the same compound?
Answer: 32.4 µM

Question: What about the GI50 (NCI-H322M lung) of the same compound?
Answer: 12.7 µM

Question: And the TGI (NCI-H322M lung)?
Answer: 73.2 µM

Question: What about the GI50 (NCI-H460 NSCLC) of the same compound?
Answer: 5.91 µM

Question: And the TGI (NCI-H460 NSCLC)?
Answer: 66.3 µM

Question: What about the GI50 (NCI-H522 lung) of the same compound?
Answer: 2.44 µM

Question: And the TGI (NCI-H522 lung)?
Answer: 10.9 µM

Question: What about the GI50 (NCI/ADR-RES ovarian) of the same compound?
Answer: 5.08 µM

Question: What about the TGI (NCI/ADR-RES ovarian) of the same compound?
Answer: 21.8 µM

Question: What about the GI50 (OVCAR-3 ovarian) of the same compound?
Answer: 6.36 µM

Question: And the TGI (OVCAR-3 ovarian)?
Answer: 27.9 µM

Question: What about the GI50 (OVCAR-4 ovarian) of the same compound?
Answer: 1.76 µM

Question: What about the TGI (OVCAR-4 ovarian) of the same compound?
Answer: 9.3 µM

Question: What about the GI50 (OVCAR-5 ovarian) of the same compound?
Answer: 4.02 µM

Question: What about the TGI (OVCAR-5 ovarian) of the same compound?
Answer: 39.1 µM

Question: And the GI50 (OVCAR-8 ovarian)?
Answer: 4.9 µM

Question: What about the TGI (OVCAR-8 ovarian) of the same compound?
Answer: 32.1 µM

Question: What about the GI50 (PC-3 prostate) of the same compound?
Answer: 3.18 µM

Question: And the TGI (PC-3 prostate)?
Answer: 18.3 µM

Question: And the GI50 (RPMI-8226 leukemia)?
Answer: 2.46 µM

Question: What about the TGI (RPMI-8226 leukemia) of the same compound?
Answer: 8.77 µM

Question: And the GI50 (RXF 393 renal)?
Answer: 2.94 µM

Question: What about the TGI (RXF 393 renal) of the same compound?
Answer: 16.6 µM

Question: And the GI50 (SF-268 CNS)?
Answer: 5.91 µM

Question: And the TGI (SF-268 CNS)?
Answer: 28.1 µM

Question: And the GI50 (SF-295 CNS)?
Answer: 17.8 µM

Question: And the TGI (SF-295 CNS)?
Answer: > 100 µM

Question: And the GI50 (SF-539 CNS)?
Answer: 10.1 µM

Question: And the TGI (SF-539 CNS)?
Answer: 37 µM

Question: And the GI50 (SK-MEL-2 melanoma)?
Answer: 20.1 µM

Question: What about the TGI (SK-MEL-2 melanoma) of the same compound?
Answer: 38.9 µM

Question: And the GI50 (SK-MEL-28 melanoma)?
Answer: 5.44 µM

Question: And the TGI (SK-MEL-28 melanoma)?
Answer: 30.7 µM

Question: And the GI50 (SK-MEL-5 melanoma)?
Answer: 10.8 µM

Question: What about the TGI (SK-MEL-5 melanoma) of the same compound?
Answer: 23.5 µM

Question: What about the GI50 (SK-OV-3 ovarian) of the same compound?
Answer: 3.64 µM

Question: And the TGI (SK-OV-3 ovarian)?
Answer: 19.7 µM

Question: And the GI50 (SN12C renal)?
Answer: 8.03 µM

Question: And the TGI (SN12C renal)?
Answer: 97.5 µM

Question: And the GI50 (SNB-19 CNS)?
Answer: 23.7 µM

Question: And the TGI (SNB-19 CNS)?
Answer: > 100 µM

Question: What about the GI50 (SNB-75 CNS) of the same compound?
Answer: 1.27 µM

Question: And the TGI (SNB-75 CNS)?
Answer: 12.2 µM

Question: What about the GI50 (SR leukemia) of the same compound?
Answer: 2.2 µM

Question: And the TGI (SR leukemia)?
Answer: 5.98 µM

Question: What about the GI50 (SW-620 colon) of the same compound?
Answer: 18.9 µM

Question: What about the TGI (SW-620 colon) of the same compound?
Answer: > 100 µM

Question: And the GI50 (T-47D breast)?
Answer: 3.6 µM

Question: And the TGI (T-47D breast)?
Answer: 23.4 µM

Question: And the GI50 (TK-10 renal)?
Answer: 2.79 µM

Question: What about the TGI (TK-10 renal) of the same compound?
Answer: 15.4 µM

Question: What about the GI50 (U251 glioblastoma) of the same compound?
Answer: 16.4 µM

Question: What about the TGI (U251 glioblastoma) of the same compound?
Answer: 58.7 µM

Question: What about the GI50 (UACC-257 melanoma) of the same compound?
Answer: 16.9 µM

Question: And the TGI (UACC-257 melanoma)?
Answer: 51.3 µM

Question: And the GI50 (UACC-62 melanoma)?
Answer: 8.87 µM

Question: What about the TGI (UACC-62 melanoma) of the same compound?
Answer: 23.3 µM
